# From ChEMBL document CHEMBL5390201, “The Natural Alkaloid (-)-N-Hydroxyapiosporamide Suppresses Colorectal Tumor Progression as an NF-κB Pathway Inhibitor by Targeting the TAK1-TRAF6 Complex” (J Nat Prod, 2023)
# Activity calls are given as the source filed them. The calls are words filed in the database; no cut-off is given here.
# Tests used:
# [1] = Toxicity in athymic nude BALB/c mouse assessed as change in serum AKP level at 5 to 15 mg/kg, ip administered every other day and measured after 14 days; assay type: organism-based; conditions: in vivo, 336 h, dose 5-15 mg/kg, time 14 day
# HT-29 = test: Induction of cell cycle arrest in human HT-29 cells assessed as accumulation of cells at G2/M phase at 10 uM by RNase/PI staining based flow cytometry analysis (reference value: 9.93 %); assay type: functional
# HCT-116 [2] = test: Induction of apoptosis in human HCT-116 cells assessed as viable cells at 0.25 uM incubated for 24 hrs by Annexin V-FITC/PI staining based flow cytometric analysis (reference value: 88.8%); assay type: functional; conditions: read-out: Activity
# HCT-116 [3] = test: Induction of autophagic cell death in human HCT-116 cells at 1 to 10 uM pretreated with 3-methyladenine for 1 hr followed by compound addition and measured after 24 hrs by SRB assay; assay type: functional, cell-based; conditions: dose 1-10 µM
smiles,measurement,setting,value
C[C@@H]1CC[C@H]2[C@H](C(=O)c3c(O)c([C@@]4(O)CC[C@@H](O)[C@H]5O[C@H]54)cn(O)c3=O)[C@H](C)C=C[C@@H]2C1,Activity,[1],Non-Toxic
same,Activity,HT-29,0.78%
same,viability at 0.25 µM,HCT-116 [2],59.9%
same,Activity,HCT-116 [3],inactive
